Experimental findings from PubChem BioAssay (NCI) are described below.

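Step 1: Grow cells in 96-well plates. Step 2: Expose to compound for 48 hours at 5 concentrations. Step 3: Interpolate endpoints linearly; if unreached, use highest concentration. TGI: total growth inhibition.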

Among the test systems are IGROV1 ovarian; A498 renal; OVCAR-5 ovarian; NCI-H226 lung; SK-MEL-5 melanoma; HT29 colon; OVCAR-3 ovarian; CAKI-1 renal; KM12 colon.
Assay in all cases: NCI tumour cell line growth inhibition, 48 h

With `Oc1ccc(CCc2cc(O)cc(O)c2)cc1`, the TGI in the experiment with IGROV1 ovarian, with A498 renal, in the experiment with OVCAR-5 ovarian, in the experiment on NCI-H226 lung, in the experiment on SK-MEL-5 melanoma and in the experiment on HT29 colon was over 100 µM each time. For the same molecule, the TGI in the experiment with OVCAR-3 ovarian, in the experiment on CAKI-1 renal and in the experiment with KM12 colon was over 100 µM in each case.

Take `CC(=O)c1cc2ccccc2n(O)c1=N`: the TGI with IGROV1 ovarian, in the experiment on A498 renal, in the experiment on OVCAR-5 ovarian, in the experiment on NCI-H226 lung, in the experiment with SK-MEL-5 melanoma and with HT29 colon was over 100 µM each time. Besides, the TGI with OVCAR-3 ovarian, in the experiment on CAKI-1 renal and with KM12 colon was over 100 µM in each case.

Turning to `CC1(COS(=O)(=O)OCC2(C)COS(=O)(=O)OC2)COS(=O)(=O)OC1`, the TGI is over 100 µM in the experiment on IGROV1 ovarian; 97.2 µM with A498 renal; over 100 µM in the experiment with OVCAR-5 ovarian; over 96.8 µM in the experiment on NCI-H226 lung; over 100 µM in the experiment on SK-MEL-5 melanoma; over 69.6 µM with HT29 colon. The figures for the TGI in the experiment on OVCAR-3 ovarian, in the experiment on CAKI-1 renal and with KM12 colon were over 100 µM, over 100 µM and over 77.3 µM, respectively.

For the molecule `Cc1sc2ccccc2[n+]1CCC(=O)O`, the TGI with IGROV1 ovarian, with A498 renal, in the experiment on OVCAR-5 ovarian, with NCI-H226 lung, with SK-MEL-5 melanoma and in the experiment with HT29 colon was over 100 µM throughout. Also, the TGI in the experiment on OVCAR-3 ovarian, with CAKI-1 renal and in the experiment on KM12 colon was over 100 µM each time.

With `COc1ccc(/C=C2\N=C(c3ccccc3)N(C3Nc4cc5c(cc4S3)NC(N3C(=O)/C(=C/c4ccc(OC)cc4)N=C3c3ccccc3)S5)C2=O)cc1` (centres undefined), the TGI in the experiment on IGROV1 ovarian, with A498 renal, with OVCAR-5 ovarian, with NCI-H226 lung, with SK-MEL-5 melanoma and with HT29 colon was over 100 µM each time. In addition, the TGI with OVCAR-3 ovarian, with CAKI-1 renal and in the experiment on KM12 colon was over 100 µM throughout.

As to `O=C1/C(=C2\Sc3c(ccc(Cl)c3Cl)C2=O)Sc2c1ccc(Cl)c2Cl`, the TGI in the experiment on IGROV1 ovarian, with A498 renal, with OVCAR-5 ovarian, with NCI-H226 lung, in the experiment with SK-MEL-5 melanoma and with HT29 colon was over 100 µM throughout. The TGI in the experiment with OVCAR-3 ovarian, in the experiment with CAKI-1 renal and in the experiment with KM12 colon was over 100 µM throughout.

As to `CCOc1cc(C2CC(c3ccc(NS(=O)(=O)c4cc([N+](=O)[O-])ccc4C)cc3)=NN2)ccc1O` (centres undefined), the TGI in the experiment with IGROV1 ovarian was over 100 µM; in the experiment on A498 renal, 70.7 µM; with OVCAR-5 ovarian it was over 100 µM; in the experiment on NCI-H226 lung, over 100 µM; in the experiment with SK-MEL-5 melanoma it was 37.8 µM; in the experiment on HT29 colon, 72.2 µM. Also, the results for the TGI in the experiment with OVCAR-3 ovarian and with CAKI-1 renal were 37.3 µM and over 100 µM, respectively.

For the molecule `C[C@]12CC[C@H](O)CC1=CC[C@@H]1[C@@H]2CC[C@]2(C)/C(=N/OCCN3CCCC3)CC[C@@H]12`, the TGI in the experiment with IGROV1 ovarian stood at 34.3 µM; in the experiment on A498 renal it was 29.8 µM; in the experiment with OVCAR-5 ovarian, 96.6 µM; in the experiment with NCI-H226 lung it was 30 µM; in the experiment with SK-MEL-5 melanoma it was 28 µM; in the experiment on HT29 colon it was 10.3 µM. Further, the TGI stood at 31.1 µM with OVCAR-3 ovarian, 40.7 µM in the experiment with CAKI-1 renal and 26.9 µM in the experiment with KM12 colon.

With `CC(=O)OCC=C(CCl)CCC(Br)C(C)(C)Br` (mixture of isomers), the TGI in the experiment on IGROV1 ovarian, with A498 renal, in the experiment on OVCAR-5 ovarian, with NCI-H226 lung, in the experiment on SK-MEL-5 melanoma and in the experiment with HT29 colon was over 10 µM throughout. Moreover, the TGI in the experiment on OVCAR-3 ovarian, in the experiment with CAKI-1 renal and in the experiment with KM12 colon was over 10 µM in each case.

With `CCCCOCn1c(=O)[nH]c(=O)c2cc(Br)ccc21`, the TGI with IGROV1 ovarian was over 100 µM; with A498 renal, over 100 µM; in the experiment on OVCAR-5 ovarian, over 100 µM; in the experiment with NCI-H226 lung, 46.9 µM; with SK-MEL-5 melanoma, over 100 µM; in the experiment with HT29 colon it was over 100 µM. In addition, the TGI is over 100 µM in the experiment on OVCAR-3 ovarian, 46.9 µM with CAKI-1 renal and over 100 µM in the experiment on KM12 colon.

Turning to `O=c1[nH]c(N/N=C\C(O)C(O)C(O)CO)nc2ccccc12` (centres undefined), the TGI with IGROV1 ovarian, in the experiment with A498 renal, in the experiment on OVCAR-5 ovarian, with NCI-H226 lung, in the experiment on SK-MEL-5 melanoma and in the experiment with HT29 colon was over 100 µM throughout. The TGI with OVCAR-3 ovarian, with CAKI-1 renal and with KM12 colon was over 100 µM each time.

Take `CCO/C(O)=C(/C(=N)N1CCCC1)C(=O)Nc1cccc(C(F)(F)F)c1`: the TGI with IGROV1 ovarian was over 100 µM; in the experiment with A498 renal it was over 100 µM; with OVCAR-5 ovarian it was over 100 µM; with NCI-H226 lung it was 83.7 µM; in the experiment on HT29 colon, over 100 µM; with OVCAR-3 ovarian, over 100 µM. In addition, the TGI in the experiment with CAKI-1 renal and with KM12 colon was over 100 µM each time.

For `CSC1=NS(=O)(=O)c2cc(C(=O)NN(C)C(=O)c3cc4c(cc3Cl)SC(SC)=NS4(=O)=O)c(Cl)cc2S1`, the TGI in the experiment with IGROV1 ovarian, in the experiment on A498 renal, in the experiment on OVCAR-5 ovarian, with NCI-H226 lung, with SK-MEL-5 melanoma and in the experiment with HT29 colon was over 10 µM in each case. The TGI with OVCAR-3 ovarian, in the experiment with CAKI-1 renal and in the experiment on KM12 colon was over 10 µM in each case.

On to `NNc1nncn1N`, for which the TGI in the experiment with IGROV1 ovarian, with A498 renal, in the experiment on OVCAR-5 ovarian, with NCI-H226 lung, in the experiment on SK-MEL-5 melanoma and in the experiment with HT29 colon was over 100 µM throughout. Also, the TGI in the experiment with OVCAR-3 ovarian, in the experiment with CAKI-1 renal and with KM12 colon was over 100 µM throughout.
